# Experimental data as given in ChEMBL document CHEMBL1144565, “Anti-breast cancer activity of LFM-A13, a potent inhibitor of Polo-like kinase (PLK)” (Bioorg Med Chem, 2007).
# Activity calls are given as the source filed them. The rule behind the calls is not given here.
# Experiments:
# [1] = target: T1, Serine/threonine-protein kinase PLK3 (Homo sapiens, UniProt Q9H4B4); test: Inhibition of human PLK3
# [2] = target: Serine/threonine-protein kinase Chk1 (Homo sapiens, UniProt O14757); test: Inhibition of CHK1
# Chain of Serine/threonine-protein kinase Chk1 (O14757 whole entry): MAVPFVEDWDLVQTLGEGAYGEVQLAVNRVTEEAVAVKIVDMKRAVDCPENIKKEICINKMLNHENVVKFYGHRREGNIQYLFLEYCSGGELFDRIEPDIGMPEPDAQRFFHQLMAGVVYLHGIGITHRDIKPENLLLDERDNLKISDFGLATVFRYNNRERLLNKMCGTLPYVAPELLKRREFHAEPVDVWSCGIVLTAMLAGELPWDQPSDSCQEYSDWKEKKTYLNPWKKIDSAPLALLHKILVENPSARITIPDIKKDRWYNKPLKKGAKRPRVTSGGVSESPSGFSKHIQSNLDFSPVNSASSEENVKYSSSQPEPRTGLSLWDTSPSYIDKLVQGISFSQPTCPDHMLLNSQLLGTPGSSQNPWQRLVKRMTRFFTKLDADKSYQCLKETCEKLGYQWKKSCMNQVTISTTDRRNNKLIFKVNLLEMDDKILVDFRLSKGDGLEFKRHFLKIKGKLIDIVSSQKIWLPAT
# Mus musculus [3] = test: Acute toxicity in CD1 mouse assessed as WBC counts at 20 mg/kg, ip after 7 days; format: organism-based; set-up: dose 20 mg/kg, route intraperitoneal; details: in vivo, 168 h
# Mus musculus [4] = test: Acute toxicity in CD1 mouse assessed as absolute neutrophil counts at 80 mg/kg, ip after 7 days; format: organism-based; set-up: dose 80 mg/kg, route intraperitoneal; details: in vivo, 168 h
# Mus musculus [5] = test: Effect on non-proliferating tissue in ip dosed CD1 mouse assessed as toxic lesions in pancreas; format: ADME, organism-based; details: in vivo
# Rattus norvegicus [6] = test: Effect on non-proliferating tissue in iv dosed Lewis rat assessed as toxic lesions in kidney on day 7; format: ADME, organism-based; details: in vivo
# [7] = target: Hepatocyte growth factor receptor (Homo sapiens, UniProt P08581); test: Inhibition of Met kinase
# Chain of Hepatocyte growth factor receptor (P08581 whole entry): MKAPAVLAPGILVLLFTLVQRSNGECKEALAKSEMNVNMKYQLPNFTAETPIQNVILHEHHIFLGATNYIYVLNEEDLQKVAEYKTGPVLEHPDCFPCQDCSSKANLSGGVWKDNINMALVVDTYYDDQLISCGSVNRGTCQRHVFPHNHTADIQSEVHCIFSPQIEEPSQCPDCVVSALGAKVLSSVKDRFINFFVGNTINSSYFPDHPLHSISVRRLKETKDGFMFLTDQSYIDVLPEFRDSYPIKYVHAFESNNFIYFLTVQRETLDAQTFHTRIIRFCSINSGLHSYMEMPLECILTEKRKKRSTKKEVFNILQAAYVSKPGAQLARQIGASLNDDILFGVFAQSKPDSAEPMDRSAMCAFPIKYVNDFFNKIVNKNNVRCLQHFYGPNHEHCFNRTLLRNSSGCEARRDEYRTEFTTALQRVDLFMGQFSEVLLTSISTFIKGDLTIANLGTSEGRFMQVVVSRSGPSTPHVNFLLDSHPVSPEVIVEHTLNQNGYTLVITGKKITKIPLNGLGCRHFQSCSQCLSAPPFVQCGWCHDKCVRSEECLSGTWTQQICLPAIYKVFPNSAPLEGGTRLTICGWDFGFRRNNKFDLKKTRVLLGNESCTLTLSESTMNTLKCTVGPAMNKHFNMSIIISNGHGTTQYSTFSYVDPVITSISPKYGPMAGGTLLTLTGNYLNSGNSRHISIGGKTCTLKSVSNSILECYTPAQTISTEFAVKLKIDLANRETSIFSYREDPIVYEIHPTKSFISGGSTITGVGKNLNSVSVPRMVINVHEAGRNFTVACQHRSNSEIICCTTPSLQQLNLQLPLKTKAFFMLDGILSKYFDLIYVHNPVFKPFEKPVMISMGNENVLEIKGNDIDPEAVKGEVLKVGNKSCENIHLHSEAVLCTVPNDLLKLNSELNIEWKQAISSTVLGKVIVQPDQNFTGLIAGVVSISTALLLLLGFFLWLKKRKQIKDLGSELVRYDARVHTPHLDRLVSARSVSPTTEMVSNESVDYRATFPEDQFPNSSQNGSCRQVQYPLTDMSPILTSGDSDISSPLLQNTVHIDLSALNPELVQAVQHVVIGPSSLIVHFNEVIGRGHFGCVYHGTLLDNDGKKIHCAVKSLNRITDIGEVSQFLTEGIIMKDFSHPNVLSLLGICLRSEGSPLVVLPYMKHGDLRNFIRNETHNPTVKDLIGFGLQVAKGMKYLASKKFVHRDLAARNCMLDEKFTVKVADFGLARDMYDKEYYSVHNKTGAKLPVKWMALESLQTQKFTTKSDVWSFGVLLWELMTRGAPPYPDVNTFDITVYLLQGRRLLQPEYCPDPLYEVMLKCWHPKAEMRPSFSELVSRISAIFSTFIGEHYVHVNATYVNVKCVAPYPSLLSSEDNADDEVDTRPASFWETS
# Mus musculus [8] = test: Subacute toxicity in CD1 mouse assessed as myeloid or lymphoid hyperplasia in bone marrow at 10 mg/kg, ip after 30 days; format: organism-based; set-up: dose 10 mg/kg, route intraperitoneal; details: in vivo, 720 h
# Mus musculus [9] = test: Subacute toxicity in CD1 mouse assessed as myeloid or lymphoid hyperplasia in bone marrow at 80 mg/kg, ip after 30 days; format: organism-based; set-up: dose 80 mg/kg, route intraperitoneal; details: in vivo, 720 h
# Mus musculus [10] = test: Subacute toxicity in CD1 mouse assessed as WBC counts at 80 mg/kg, ip after 30 days; format: organism-based; set-up: dose 80 mg/kg, route intraperitoneal; details: in vivo, 720 h
# BT-20 = test: Induction of aberrant monopolar and multipolar spindle formation in human BT20 cells assessed as at 100 uM; format: functional, cell-based
# Mus musculus [11] = test: Acute toxicity in CD1 mouse assessed as absolute neutrophil counts at 10 mg/kg, ip after 7 days; format: organism-based; set-up: dose 10 mg/kg, route intraperitoneal; details: in vivo, 168 h
# Mus musculus [12] = test: Toxicity in ip dosed CD1 mouse; format: organism-based; details: in vivo
# Mus musculus [13] = test: Subacute toxicity in CD1 mouse assessed as absolute neutrophil counts at 10 mg/kg, ip after 30 days; format: organism-based; set-up: dose 10 mg/kg, route intraperitoneal; details: in vivo, 720 h
# [14] = target: Insulin-like growth factor 1 receptor (Homo sapiens, UniProt P08069); test: Inhibition of IGF1R
# [15] = target: Serine/threonine-protein kinase PLK1 (Xenopus laevis, UniProt P70032); test: Inhibition of xenopus recombinant Plx1 expressed in Sf21 cells by measuring autophosphorylation by 15-mins kinase assay; format: functional
# Chain of Serine/threonine-protein kinase PLK1 (P70032 whole entry): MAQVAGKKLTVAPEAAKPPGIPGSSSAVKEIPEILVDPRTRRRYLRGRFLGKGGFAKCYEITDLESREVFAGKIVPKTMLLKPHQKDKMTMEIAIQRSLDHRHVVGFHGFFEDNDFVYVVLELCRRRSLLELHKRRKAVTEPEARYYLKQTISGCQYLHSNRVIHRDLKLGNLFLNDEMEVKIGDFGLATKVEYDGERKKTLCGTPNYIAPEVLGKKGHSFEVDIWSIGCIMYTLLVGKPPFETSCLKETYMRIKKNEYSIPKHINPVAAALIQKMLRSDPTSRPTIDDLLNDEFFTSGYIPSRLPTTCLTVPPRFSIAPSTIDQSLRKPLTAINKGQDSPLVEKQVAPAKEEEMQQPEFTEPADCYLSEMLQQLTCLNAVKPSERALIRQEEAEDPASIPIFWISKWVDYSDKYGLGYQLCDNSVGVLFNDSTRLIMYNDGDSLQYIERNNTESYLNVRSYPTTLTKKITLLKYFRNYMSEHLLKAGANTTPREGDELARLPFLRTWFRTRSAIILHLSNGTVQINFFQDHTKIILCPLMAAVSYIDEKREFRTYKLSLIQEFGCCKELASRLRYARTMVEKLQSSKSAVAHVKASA
# Rattus norvegicus [16] = test: Toxicity in Lewis rat assessed as absolute neutrophil counts at 40 mg/kg, iv after 7 days; format: organism-based; set-up: dose 40 mg/kg, route intravenous; details: in vivo, 168 h
# Mus musculus [17] = test: Subacute toxicity in CD1 mouse assessed as absolute neutrophil counts at 20 mg/kg, ip after 30 days; format: organism-based; set-up: dose 20 mg/kg, route intraperitoneal; details: in vivo, 720 h
# Rattus norvegicus [18] = test: Toxicity in iv dosed Lewis rat; format: organism-based; details: in vivo
# Rattus norvegicus [19] = test: Toxicity in Lewis rat assessed as absolute lymphocyte counts at 80 mg/kg, iv after 7 days; format: organism-based; set-up: dose 80 mg/kg, route intravenous; details: in vivo, 168 h
# Mus musculus [20] = test: Acute toxicity in CD1 mouse assessed as WBC counts at 40 mg/kg, ip after 7 days; format: organism-based; set-up: dose 40 mg/kg, route intraperitoneal; details: in vivo, 168 h
# Mus musculus [21] = test: Subacute toxicity in CD1 mouse assessed as absolute neutrophil counts at 40 mg/kg, ip after 30 days; format: organism-based; set-up: dose 40 mg/kg, route intraperitoneal; details: in vivo, 720 h
# Danio rerio [22] = organism: Danio rerio; test: Effect on cell division blockade in zebrafish egg assessed as cell fusion and lysis at 500 uM after 60 mins; format: functional, organism-based
# Mus musculus [23] = test: Subacute toxicity in CD1 mouse assessed as absolute lymphocyte counts at 40 mg/kg, ip after 30 days; format: organism-based; set-up: dose 40 mg/kg, route intraperitoneal; details: in vivo, 720 h
# Mus musculus [24] = test: Subacute toxicity in CD1 mouse assessed as absolute lymphocyte counts at 20 mg/kg, ip after 30 days; format: organism-based; set-up: dose 20 mg/kg, route intraperitoneal; details: in vivo, 720 h
# Mus musculus [25] = test: Acute toxicity in CD1 mouse assessed as myeloid or lymphoid hyperplasia in bone marrow at 10 mg/kg, ip after 7 days; format: organism-based; set-up: dose 10 mg/kg, route intraperitoneal; details: in vivo, 168 h
# [26] = target: Tyrosine-protein kinase Yes (Homo sapiens, UniProt P07947); test: Inhibition of YES kinase
# Chain of Tyrosine-protein kinase Yes (P07947 whole entry): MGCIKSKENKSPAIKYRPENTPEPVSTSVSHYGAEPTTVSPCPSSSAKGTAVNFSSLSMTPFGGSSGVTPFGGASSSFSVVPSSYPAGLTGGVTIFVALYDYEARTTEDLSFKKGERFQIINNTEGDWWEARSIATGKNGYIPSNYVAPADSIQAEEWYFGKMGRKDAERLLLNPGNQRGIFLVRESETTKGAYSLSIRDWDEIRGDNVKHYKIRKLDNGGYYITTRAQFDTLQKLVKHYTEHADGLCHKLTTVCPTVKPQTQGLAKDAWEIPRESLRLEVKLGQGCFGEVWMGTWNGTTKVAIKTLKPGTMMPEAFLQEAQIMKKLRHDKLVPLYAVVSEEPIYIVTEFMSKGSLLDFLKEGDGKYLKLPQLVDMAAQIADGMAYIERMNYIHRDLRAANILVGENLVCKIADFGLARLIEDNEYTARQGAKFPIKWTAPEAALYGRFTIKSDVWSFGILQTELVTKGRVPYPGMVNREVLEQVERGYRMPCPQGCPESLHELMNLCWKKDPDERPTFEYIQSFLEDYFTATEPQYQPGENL
# [27] = target: Mitogen-activated protein kinase 1 (Homo sapiens, UniProt P28482); test: Inhibition of MAPK1
# Chain of Mitogen-activated protein kinase 1 (P28482 whole entry): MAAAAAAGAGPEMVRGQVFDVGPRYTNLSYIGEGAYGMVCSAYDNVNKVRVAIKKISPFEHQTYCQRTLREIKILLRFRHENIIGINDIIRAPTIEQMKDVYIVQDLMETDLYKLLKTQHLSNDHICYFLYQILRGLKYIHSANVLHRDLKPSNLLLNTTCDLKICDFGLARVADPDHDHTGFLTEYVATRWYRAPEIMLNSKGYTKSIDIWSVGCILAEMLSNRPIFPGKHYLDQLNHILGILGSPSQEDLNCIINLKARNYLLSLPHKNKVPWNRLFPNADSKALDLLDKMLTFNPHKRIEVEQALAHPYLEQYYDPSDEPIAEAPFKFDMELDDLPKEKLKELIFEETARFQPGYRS
# Mus musculus [28] = test: Acute toxicity in CD1 mouse assessed as absolute neutrophil counts at 20 mg/kg, ip after 7 days; format: organism-based; set-up: dose 20 mg/kg, route intraperitoneal; details: in vivo, 168 h
# PTK1 = test: Antiproliferative activity against prometaphase PTK1 cells assessed as complete arrest at 1 mM within 50 mins; format: functional, cell-based; details: Potorous tridactylus
# [29] = target: Mitogen-activated protein kinase 14 (Homo sapiens, UniProt Q16539); test: Inhibition of SAPK2a
# Mus musculus [30] = test: Effect on non-proliferating tissue in po dosed BALB/c mouse assessed as toxic lesions in brain; format: ADME, organism-based; details: in vivo
# Rattus norvegicus [31] = test: Toxicity in Lewis rat assessed as WBC counts at 80 mg/kg, iv after 7 days; format: organism-based; set-up: dose 80 mg/kg, route intravenous; details: in vivo, 168 h
# Mus musculus [32] = test: Acute toxicity in CD1 mouse assessed as absolute neutrophil counts at 40 mg/kg, ip after 7 days; format: organism-based; set-up: dose 40 mg/kg, route intraperitoneal; details: in vivo, 168 h
# Mus musculus [33] = test: Acute toxicity in CD1 mouse assessed as absolute lymphocyte counts at 10 mg/kg, ip after 7 days; format: organism-based; set-up: dose 10 mg/kg, route intraperitoneal; details: in vivo, 168 h
# [34] = target: Inhibitor of NF-kappa-B kinase (IKK) (Homo sapiens, UniProt O14920+O15111+Q9Y6K9); test: Inhibition of IKK; format: protein-complex assay
# Mus musculus [35] = test: Acute toxicity in CD1 mouse assessed as WBC counts at 80 mg/kg, ip after 7 days; format: organism-based; set-up: dose 80 mg/kg, route intraperitoneal; details: in vivo, 168 h
# [36] = target: Tyrosine-protein kinase Fyn (Homo sapiens, UniProt P06241); test: Inhibition of FYN kinase
# Chain of Tyrosine-protein kinase Fyn (P06241 whole entry): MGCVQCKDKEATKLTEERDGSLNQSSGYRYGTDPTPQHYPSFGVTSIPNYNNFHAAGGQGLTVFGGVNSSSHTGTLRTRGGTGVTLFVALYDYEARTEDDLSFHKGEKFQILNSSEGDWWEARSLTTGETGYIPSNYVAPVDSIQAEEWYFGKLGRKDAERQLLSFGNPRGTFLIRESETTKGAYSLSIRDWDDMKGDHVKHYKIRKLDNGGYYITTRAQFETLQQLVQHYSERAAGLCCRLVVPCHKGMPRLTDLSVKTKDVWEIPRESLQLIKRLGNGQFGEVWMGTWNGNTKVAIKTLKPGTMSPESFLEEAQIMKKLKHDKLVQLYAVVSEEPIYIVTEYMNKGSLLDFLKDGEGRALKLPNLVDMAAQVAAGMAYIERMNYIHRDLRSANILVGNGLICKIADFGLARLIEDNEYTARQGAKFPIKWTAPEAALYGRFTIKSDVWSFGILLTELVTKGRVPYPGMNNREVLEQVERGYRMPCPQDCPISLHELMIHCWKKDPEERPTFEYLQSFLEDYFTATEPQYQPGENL
# Mus musculus [37] = test: Effect on non-proliferating tissue in ip dosed CD1 mouse assessed as toxic lesions in kidney; format: ADME, organism-based; details: in vivo
# Mus musculus [38] = test: Effect on non-proliferating tissue in po dosed BALB/c mouse assessed as toxic lesions in myocardium; format: ADME, organism-based; details: in vivo
# Mus musculus [39] = test: Toxicity in po dosed BALB/c mouse; format: organism-based; details: in vivo
# Danio rerio [40] = organism: Danio rerio; test: Effect on cell division blockade in zebrafish two-cell stage embryo assessed as proliferation arrest at 16-cell stage at 500 uM after 30 to 35 mins; format: functional, organism-based
# Mus musculus [41] = test: Subacute toxicity in CD1 mouse assessed as myeloid or lymphoid hyperplasia in bone marrow at 20 mg/kg, ip after 30 days; format: organism-based; set-up: dose 20 mg/kg, route intraperitoneal; details: in vivo, 720 h
# Rattus norvegicus [42] = test: Toxicity in Lewis rat assessed as absolute lymphocyte counts at 20 mg/kg, iv after 7 days; format: organism-based; set-up: dose 20 mg/kg, route intravenous; details: in vivo, 168 h
# [43] = target: T1, Serine/threonine-protein kinase PLK3; test: Inhibition of human PLK3 in presence of 75 uM ATP
# Mus musculus [44] = test: Effect on non-proliferating tissue in ip dosed CD1 mouse assessed as toxic lesions in brain; format: ADME, organism-based; details: in vivo
# Rattus norvegicus [45] = test: Toxicity in Lewis rat assessed as absolute neutrophil counts at 80 mg/kg, iv after 7 days; format: organism-based; set-up: dose 80 mg/kg, route intravenous; details: in vivo, 168 h
# [46] = target: Cyclin-dependent kinase 1 (Homo sapiens, UniProt P06493); test: Inhibition of CDK1
# Chain of Cyclin-dependent kinase 1 (P06493 whole entry): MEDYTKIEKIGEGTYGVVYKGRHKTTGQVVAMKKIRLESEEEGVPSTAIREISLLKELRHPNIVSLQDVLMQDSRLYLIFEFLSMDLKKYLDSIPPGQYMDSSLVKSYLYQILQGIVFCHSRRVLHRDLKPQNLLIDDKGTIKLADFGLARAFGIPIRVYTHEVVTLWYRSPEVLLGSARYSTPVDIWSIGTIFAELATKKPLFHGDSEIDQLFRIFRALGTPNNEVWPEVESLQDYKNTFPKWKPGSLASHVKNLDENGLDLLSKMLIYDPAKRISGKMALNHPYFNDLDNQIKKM
# Mus musculus [47] = test: Subacute toxicity in CD1 mouse assessed as absolute lymphocyte counts at 80 mg/kg, ip after 30 days; format: organism-based; set-up: dose 80 mg/kg, route intraperitoneal; details: in vivo, 720 h
# Rattus norvegicus [48] = test: Toxicity in Lewis rat assessed as WBC counts at 20 mg/kg, iv after 7 days; format: organism-based; set-up: dose 20 mg/kg, route intravenous; details: in vivo, 168 h
# [49] = target: Cyclin-dependent kinase 3 (Homo sapiens, UniProt Q00526); test: Inhibition of CDK3
# Rattus norvegicus [50] = test: Effect on non-proliferating tissue in iv dosed Lewis rat assessed as toxic lesions in myocardium on day 7; format: ADME, organism-based; details: in vivo
# Mus musculus [51] = test: Acute toxicity in CD1 mouse assessed as absolute lymphocyte counts at 40 mg/kg, ip after 7 days; format: organism-based; set-up: dose 40 mg/kg, route intraperitoneal; details: in vivo, 168 h
# Mus musculus [52] = test: Acute toxicity in CD1 mouse assessed as absolute lymphocyte counts at 80 mg/kg, ip after 7 days; format: organism-based; set-up: dose 80 mg/kg, route intraperitoneal; details: in vivo, 168 h
# T1 sequence (Q9H4B4 whole entry): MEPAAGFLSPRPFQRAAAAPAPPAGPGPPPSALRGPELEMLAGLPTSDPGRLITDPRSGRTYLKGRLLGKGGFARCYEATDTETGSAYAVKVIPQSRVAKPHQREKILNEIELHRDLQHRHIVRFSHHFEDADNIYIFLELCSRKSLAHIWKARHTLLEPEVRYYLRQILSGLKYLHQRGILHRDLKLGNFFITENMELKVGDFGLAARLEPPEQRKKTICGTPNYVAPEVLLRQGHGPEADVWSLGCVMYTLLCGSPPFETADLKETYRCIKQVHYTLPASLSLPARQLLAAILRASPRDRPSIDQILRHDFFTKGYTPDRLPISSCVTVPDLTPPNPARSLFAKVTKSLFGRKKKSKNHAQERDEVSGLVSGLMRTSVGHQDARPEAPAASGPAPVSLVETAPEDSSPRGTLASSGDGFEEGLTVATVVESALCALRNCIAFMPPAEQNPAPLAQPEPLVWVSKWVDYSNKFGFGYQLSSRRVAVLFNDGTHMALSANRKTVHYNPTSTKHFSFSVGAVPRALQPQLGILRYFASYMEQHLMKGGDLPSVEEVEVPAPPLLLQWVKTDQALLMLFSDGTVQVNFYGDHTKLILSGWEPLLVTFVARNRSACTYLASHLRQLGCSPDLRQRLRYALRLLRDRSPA
compound,measurement,setting,value
C/C(O)=C(\C#N)C(=O)Nc1cc(Br)ccc1Br,IC50,[1],61 µM
same,IC50,[2],> 500 µM
same,Activity,Mus musculus [3],7.6 10^9/L
same,Activity,Mus musculus [4],1.7 10^9/L
same,Activity,Mus musculus [5],Non-toxic
same,Activity,Rattus norvegicus [6],Non-toxic
same,IC50,[7],215 µM
same,Activity,Mus musculus [8],Non-toxic
same,Activity,Mus musculus [9],Non-toxic
same,Activity,Mus musculus [10],6.1 10^9/L
same,Activity,BT-20,Active
same,Activity,Mus musculus [11],1.3 10^9/L
same,LD10,Mus musculus [12],> 80 mg/kg
same,Activity,Mus musculus [13],1.4 10^9/L
same,IC50,[14],> 500 µM
same,IC50,[15],10.3 µM
same,Activity,Rattus norvegicus [16],2.1 10^9/L
same,Activity,Mus musculus [17],2.2 10^9/L
same,LD10,Rattus norvegicus [18],> 80 mg/kg
same,Activity,Rattus norvegicus [19],9.7 10^9/L
same,Activity,Mus musculus [20],7 10^9/L
same,Activity,Mus musculus [21],1 10^9/L
same,Activity,Danio rerio [22],Active
same,Activity,Mus musculus [23],5.1 10^9/L
same,Activity,Mus musculus [24],3.9 10^9/L
same,Activity,Mus musculus [25],Non-toxic
same,IC50,[26],> 500 µM
same,IC50,[27],> 500 µM
same,Activity,Mus musculus [28],1.4 10^9/L
same,Activity,PTK1,Active
same,IC50,[29],> 500 µM
same,Activity,Mus musculus [30],Non-toxic
same,Activity,Rattus norvegicus [31],11.7 10^9/L
same,Activity,Mus musculus [32],1.6 10^9/L
same,Activity,Mus musculus [33],5.4 10^9/L
same,IC50,[34],> 500 µM
same,Activity,Mus musculus [35],6.6 10^9/L
same,IC50,[36],240 µM
same,Activity,Mus musculus [37],Non-toxic
same,Activity,Mus musculus [38],Non-toxic
same,LD10,Mus musculus [39],> 100 mg/kg
same,Activity,Danio rerio [40],Active
same,Activity,Mus musculus [41],Non-toxic
same,Activity,Rattus norvegicus [42],9.8 10^9/L
same,IC50,[43],120 µM
same,Activity,Mus musculus [44],Non-toxic
same,Activity,Rattus norvegicus [45],1.8 10^9/L
same,IC50,[46],> 500 µM
same,Activity,Mus musculus [47],4.3 10^9/L
same,Activity,Rattus norvegicus [48],11.7 10^9/L
same,IC50,[49],> 500 µM
same,Activity,Rattus norvegicus [50],Non-toxic
same,Activity,Mus musculus [51],5.2 10^9/L
same,Activity,Mus musculus [52],4.6 10^9/L
